Usually Ki stands for the equilibrium dissociation constant of an inhibitor or competing ligand from its target. A lower Ki goes with a stronger hold on the target.

This is an account of results in US8440694B2, “Quinoline compounds suitable for treating disorders that respond to modulation of the serotonin-5-HT6 receptor” (Abbott GmbH & Co. KG, priority 2007, dated 2013).

Molecules are shown by their SMILES. Counter-ions that a name gives are not always drawn.

In this assay the target is T1, h-5-HT6 receptor (Homo sapiens, UniProt P50406).
T1 construct: expressed in transfected cells
T1 sequence (P50406 whole entry): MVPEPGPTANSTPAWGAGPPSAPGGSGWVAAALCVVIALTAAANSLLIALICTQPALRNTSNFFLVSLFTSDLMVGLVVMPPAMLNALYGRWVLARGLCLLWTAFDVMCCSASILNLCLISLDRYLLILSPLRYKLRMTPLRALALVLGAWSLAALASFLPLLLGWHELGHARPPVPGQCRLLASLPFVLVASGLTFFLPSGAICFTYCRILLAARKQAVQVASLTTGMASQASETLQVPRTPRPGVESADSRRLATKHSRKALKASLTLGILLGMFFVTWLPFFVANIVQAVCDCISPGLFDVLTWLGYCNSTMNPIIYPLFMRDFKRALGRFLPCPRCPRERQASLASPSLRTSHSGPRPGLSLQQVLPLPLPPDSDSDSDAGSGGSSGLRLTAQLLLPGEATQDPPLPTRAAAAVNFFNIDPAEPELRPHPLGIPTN
The assay can be described thus: 5-HT6 receptor binding assay (displacement of [3H]-LSD). The following applies: membranes of HEK293 cells stably expressing h-5-HT6 receptor, [3H]-LSD displacement. How it is done:
Displacement of Radioligands Binding to the Following Cloned Human Receptors
Cells from stable clonal cell lines expressing the corresponding receptor (5-HT6, α1-adrenergic, dopamine D2 or histamine H1 receptors) were washed with PBS (w/o Ca^++, Mg^++) and harvested in PBS with 0.02% EDTA. The cells were collected by centrifugation at 500 g for 10 min. at 4° C., washed with PBS and centrifuged (500 g, 10 min. 4° C.). The pellets were stored at −80° C. until use. For membrane preparation, the thawed cell pellet was resuspended in ice-cold sucrose buffer (0.25 M sucrose, 10 mM Hepes (pH 7.4), 1 mM Phenylmethylsulfonyl fluoride (PMSF) in DMSO, 5 μg/ml Pepstatin-A, 3 mM EDTA, 0.025% Bacitracin) and homogenized with a Branson Sonifier W-250 (Settings: Timer 4; Output Control 3; Duty Cycle constant; 2 to 3 cycles). Cell disruption was checked with the aid of a microscope. Remaining unbroken cells were pelleted at 1.000 g for 10 min. at 4° C. The sucrose buffer supernatant was then centrifuged at 60.000 g for 1 h at 4° C. (Beckman Ultrazentrifuge XL 80). The pellet was resuspended in 30 ml ice-cold Tris buffer (20 mM TRIS (pH 7.4), 5 μg/ml Pepstatin A, 0.1 mM PMSF, 3 mM EDTA) by pipetting through a 10 ml serological pipet and centrifuged for 1 h at 4° C. at 60.000 g. A final resuspension was performed in a small volume of ice-cold Tris buffer (see above) by pressing through a serological pipet followed by ultrasonic treatment with a Branson Sonifier W-250 (Settings: Timer 1; Output Control 3; Duty Cycle constant; 1 cycle). Protein concentration was determined (BCA-Kit; Pierce) and aliquots stored at −80° C. or in liquid nitrogen for long-term storage.
All receptor binding experiments were carried out in the corresponding assay buffer in a total volume of 200 μl in the presence of various concentrations of test compound (10^−5 M to 10^−9 M, tenfold serial dilution, duplicate determinations). The assays were terminated by filtration on polyethylenimine (PEI 0.1% or 0.3%) presoaked Packard Unifilter Plates (GF/C or GF/B) with a Tomtec MachIII U 96well-plate harvester. After the plates had been dried for 2 h at 55° C. in a drying chamber scintillation cocktail (BetaPlate Scint; PerkinElmer) was added. Radioactivity was measured in a Microbeta Trilux two hours after the addition of the scintillation mixture. Data derived from liquid scintillation counting were analysed by iterative non-linear regression analysis with the use of the Statistical Analysis System (SAS): a program similar to “LIGAND” as described by Munson and Rodbard (Analytical Biochemistry 107, 220-239 (1980).
HEK293 cells stably expressing the h-5-HT6 receptor (NCBI Reference Sequence XM 001435) were cultured in RPMI1640 medium supplemented with 25 mM HEPES, 10% fetal calf serum and 1-2 mM glutamine. The membrane preparation was performed as described in section 1. […] Non-specific binding was defined with 1 μM methiothepin. The binding reaction was carried out for 3.5 h at room temperature. During the incubation, the plates were shaken on a plate shaker at 100 rpm and terminated by filtration on Packard Unifilter GF/C (0.1% PEI) plates, followed by 2 wash cycles with ice-cold 50 mM Tris-HCl, 5 mM CaCl2.
Data derived from liquid scintillation counting were analyzed by iterative non-linear regression analysis with the use of the Statistical Analysis System (SAS): a program similar to “LIGAND” as described by Munson and Rodbard (Anal. Biochem. 1980, 107, 220-239). Fitting was performed according to formulae described by Feldman (Anal. Biochem. 1972, 48, 317-338). IC50, nH and Ki values were expressed as geometrical mean.
For orientation: In a radioligand displacement assay an active substance lowers the binding of a labelled ligand.
As to `O=S(=O)(c1ccccc1)c1cnc2c(N3CC4CCNC4C3)cccc2c1` (stereo not drawn) [Example 1, 8-(Hexahydropyrrolo[3,4-b]pyrrol-5(1H)-yl)-3-(phenylsulfonyl)quinoline hydrochloride], the Ki was under 10 nM.

`O=C(OCc1ccccc1)N1CC2CN(c3cccc4cc(S(=O)(=O)c5ccccc5)cnc34)C2C1` (stereo not drawn) [Example 2, Benzyl 6-(3-(phenylsulfonyl)quinolin-8-yl)-3,6-diazabicyclo[3.2.0]heptane-3-carboxylate] gave an inhibition constant Ki of under 250 nM.

Turning to `CC(C)(C)OC(=O)N1CCC2CN(c3cccc4cc(S(=O)(=O)c5ccccc5)cnc34)CC2C1` (stereo not drawn) [Example 3, tert-butyl 2-(3-(phenylsulfonyl)quinolin-8-yl)hexahydro-1H-pyrrolo[3,4-c]pyridine-5(6H)-carboxylate], the Ki was under 250 nM.

`O=S(=O)(c1ccccc1)c1cnc2c(N3CC4CCNCC4C3)cccc2c1` (stereo not drawn) [Example 4, 3-(Phenylsulfonyl)-8-(1H-pyrrolo[3,4-c]pyridin-2(3H,3aH,4H,5H,6H,-7H,7aH)-yl)quinoline] gave a Ki of under 10 nM.

The compound `O=S(=O)(c1ccccc1)c1cnc2c(N3CCCC4NCCCC43)cccc2c1` (stereo not drawn) [Example 10, 1-(3-(phenylsulfonyl)quinolin-8-yl)decahydro-1,5-naphthyridine] had an inhibition constant (Ki) of under 250 nM.

With `O=S(=O)(c1ccccc1)c1cnc2c(N3CC[C@H]4CNC[C@H]43)cccc2c1` [Example 12, 8-((3aS,6aS)-hexahydropyrrolo[3,4-b]pyrrol-1(2H)-yl)-3-(phenylsulfonyl)-quinoline], the Ki is under 10 nM.

The compound `O=S(=O)(c1ccc(F)cc1)c1cnc2c(N3CC4CCNCC4C3)cccc2c1` (stereo not drawn) [Example 13, 3-(4-fluorophenylsulfonyl)-8-(1H-pyrrolo[3,4-c]pyridin-2(3H,3aH,4H,5H,6H,7H,7aH)-yl)quinoline] registered a Ki of under 10 nM.

On to `O=S(=O)(c1ccc(F)cc1)c1cnc2c(N3CC4CNCC4C3)cccc2c1` (stereo not drawn) [Example 14, 3-(4-fluorophenylsulfonyl)-8-(hexahydropyrrolo[3,4-c]pyrrol-2(1H)-yl)quinoline], for which the Ki is under 10 nM.

As to `CC(C)(C)OC(=O)N1CC2CN(c3cccc4cc(S(=O)(=O)c5cccc(OC(F)(F)F)c5)cnc34)CC2C1` (stereo not drawn) [Example 15, tert-butyl 5-(3-(3-(trifluoromethoxy)phenylsulfonyl)quinolin-8-yl)hexahydropyrrolo[3,4-c]pyrrole-2 (1H)-carboxylate], the inhibition constant (Ki) was under 50 nM.

Consider `O=S(=O)(c1cccc(OC(F)(F)F)c1)c1cnc2c(N3CC4CNCC4C3)cccc2c1` (stereo not drawn) [Example 16, 8-(hexahydropyrrolo[3,4-c]pyrrol-2(1H)-yl)-3-(3-(trifluoromethoxy)-phenylsulfonyl)quinoline], for which the Ki was under 10 nM.

`O=S(=O)(c1cccc(N2CC3CNCC3C2)c1)c1cnc2c(N3CC4CNCC4C3)cccc2c1` (stereo not drawn) [Example 18, 8-(hexahydropyrrolo[3,4-c]pyrrol-2(1H)-yl)-3-(3-(hexahydropyrrolo[3,4-c]pyrrol-2(1H)-yl)phenylsulfonyl)quinoline]: the Ki was under 10 nM.

`CC(C)(C)OC(=O)N1CCC2CN(c3cccc4cc(S(=O)(=O)c5cccc(OC(F)(F)F)c5)cnc34)CC2C1` (stereo not drawn) [Example 19, tert-butyl 2-(3-(3-(trifluoromethoxy)phenylsulfonyl)quinolin-8-yl)hexahydro-1H-pyrrolo[3,4-c]pyridine-5(6H)-carboxylate] registered a Ki of under 50 nM.

For `O=S(=O)(c1cccc(OC(F)(F)F)c1)c1cnc2c(N3CC4CCNCC4C3)cccc2c1` (stereo not drawn) [Example 20, 8-(1H-pyrrolo[3,4-c]pyridin-2(3H,3aH,4H,5H,6H,7H,7aH)-yl)-3-(3-(trifluoromethoxy)phenylsulfonyl)quinoline], the Ki was under 10 nM.

Regarding `O=S(=O)(c1cccc(C(F)(F)F)c1)c1cnc2c(N3CC4CCNC4C3)cccc2c1` (stereo not drawn) [Example 22, 8-(hexahydropyrrolo[3,4-b]pyrrol-5(1H)-yl)-3-(3-(trifluoromethyl)-phenylsulfonyl)quinoline], the inhibitory constant (Ki) was under 10 nM.

`O=S(=O)(c1cccc(C(F)(F)F)c1)c1cnc2c(N3C[C@H]4CNC[C@H]4C3)cccc2c1` [Example 24, 8-((3aR,6aS)-hexahydropyrrolo[3,4-c]pyrrol-2(1H)-yl)-3-(3-(trifluoromethyl)phenylsulfonyl)quinoline]: the Ki was under 10 nM.

On to `O=S(=O)(c1cccc(F)c1)c1cnc2c(N3CC[C@H]4CNC[C@H]43)cccc2c1` [Example 26, 3-(3-Fluoro-benzenesulfonyl)-8-(3aS,6aS)-hexahydropyrrolo[3,4-b]pyrrol-1-yl-quinoline hydrochloride], for which the Ki was under 10 nM.

Consider `O=S(=O)(c1cccc(F)c1)c1cnc2c(N3C[C@H]4CN[C@H]4C3)cccc2c1` [Example 28, 8-(1R,5R)-3,6-Diaza-bicyclo[3.2.0]hept-3-yl-3-(3-fluoro-benzenesulfonyl)-quinoline hydrochloride], for which the Ki is under 10 nM.

Compound `O=S(=O)(c1cccc(F)c1)c1cnc2c(N3CC4CCNC4C3)cccc2c1` (stereo not drawn) [Example 29, 3-(3-Fluoro-benzenesulfonyl)-8-(hexahydro-pyrrolo[3,4-b]pyrrol-5-yl)-quinoline hydrochloride] had a Ki of under 10 nM.

`O=S(=O)(c1cccc(F)c1)c1cnc2c(N3C[C@H]4CNC[C@H]4C3)cccc2c1` [Example 30, 3-(3-Fluoro-benzenesulfonyl)-8-(3aR,6aS)-hexahydro-pyrrolo[3,4-c]pyrrol-2-yl-quinoline hydrochloride] registered a Ki of under 10 nM.

Compound `O=S(=O)(c1cccc(F)c1)c1cnc2c(N3CC4CCCNC4C3)cccc2c1` (stereo not drawn) [Example 31, 6-(3-(3-fluorophenylsulfonyl)quinolin-8-yl)octahydro-1H-pyrrolo[3,4-b]pyridin-1-ium chloride] returned a Ki of under 10 nM.

The compound `O=S(=O)(c1cccc(F)c1)c1cnc2c(N3C[C@@H]4CN[C@@H]4C3)cccc2c1` [Example 32, (1S,5S)-3-(3-(3-fluorophenylsulfonyl)quinolin-8-yl)-3-aza-6-azoniabicyclo[3.2.0]heptane hydrochloride] came in with a Ki of under 10 nM.

Consider `O=S(=O)(c1ccc(F)cc1)c1cnc2c(N3CC4CCNC4C3)cccc2c1` (stereo not drawn) [Example 39, 3-(4-fluorophenylsulfonyl)-8-(hexahydropyrrolo[3,4-b]pyrrol-5(1H)-yl)quinoline], for which the Ki was under 10 nM.

`O=S(=O)(c1ccccc1)c1cnc2c(N3CC4CN(Cc5ccccc5)CC4C3)cccc2c1` (stereo not drawn) [Example 40, 8-(5-benzylhexahydropyrrolo[3,4-c]pyrrol-2(1H)-yl)-3-(phenylsulfonyl)-quinoline] registered a Ki of under 10 nM.

Compound `CN1CCC2CN(c3cccc4cc(S(=O)(=O)c5ccccc5)cnc34)CC2C1` (stereo not drawn) [Example 41, 8-(5-methyl-1H-pyrrolo[3,4-c]pyridin-2(3H,3aH,4H,5H,6H,7H,7aH)-yl)-3] gave a Ki of under 50 nM.

Turning to `O=S(=O)(c1ccccc1)c1cnc2c(N3CCC4NC5CCCCC5C4C3)cccc2c1` (stereo not drawn) [Example 42, 2-(3-(phenylsulfonyl)quinolin-8-yl)dodecahydro-1H-pyrido[4,3-b]indole], the inhibitory constant (Ki) is under 250 nM.

`O=S(=O)(c1ccccc1)c1cnc2c(N3CC4CNCC4C3)cccc2c1` (stereo not drawn) [Example 43, 8-(hexahydropyrrolo[3,4-c]pyrrol-2(1H)-yl)-3-(phenylsulfonyl)quinoline] displayed a Ki of under 10 nM.

With `O=S(=O)(c1cccc(C(F)(F)F)c1)c1cnc2c(N3CC4CCNCC4C3)cccc2c1` (stereo not drawn) [Example 44, 8-(1H-pyrrolo[3,4-c]pyridin-2(3H,3aH,4H,5H,6H,7H,7aH)-yl)-3-(3-(trifluoromethyl)phenylsulfonyl)quinoline], the Ki is under 10 nM.
